Entries after “also recorded” stand apart in the source; their conditions may differ. Peptide text beside a SMILES is read from it.
Assays:
bovine brain calmodulin [1] = target: T1, bovine brain calmodulin (Bos taurus, UniProt P62157); assay: stopped-flow measurement of kisom of calmodulin-binding peptides; settings: changes in tryptophan fluorescence
T1 construct: Complexes between calmodulin from bovine brain (1 μM, Sigma); purchased Sigma; host or cells: bovine brain (tissue-derived)
Text: It has been shown by Torok and Trentham (1994) that smooth muscle MLCK-derived peptides bind to calmodulin with a biphasic kinetic according to the scheme: [drawing 1]
in which P is the peptide, C is calmodulin, P-C is the first complex formed on association of P and C, which then undergoes a conformational isomerisation to P-C*.
(§1) For a kinetic and thermodynamic characterisation of the binding of the peptides of the present invention to bovine brain calmodulin, we have measured the kinetic isomerisation, association, and dissociation constants from which dissociation constants can be derived.
kisom constants have been measured by stopped-flow, detecting changes in tryptophan fluorescence for all the peptides except 3 (SEQ ID NO:4), in which the tryptophan is replaced by alanine.

bovine brain calmodulin [2] = target: T1, bovine brain calmodulin; assay: BIAcore surface plasmon resonance, kon and koff of calmodulin binding to biotinylated peptides; settings: for koff: read-out: koff (s^-1)^B; for kon: read-out: kon (s^-1 M^-1)^B; for improvement in Kd / affinity for calmodulin over the wild type peptide, in words: Table 1
Text: as §1
koff =k-1·k-2 /(k+2 +k-2)
Real-time interaction analysis by surface plasmon resonance on a BIAcore instrument (Jonsson et al., 1991) was used to determine kon and koff constants. Biotinylated peptides 1-17 were bound to commercially available streptavidin-coated microsensor chips (Pharmacia Biosensor), in order to achieve a surface capacity of 100-200 surface plasmon resonance units of calmodulin bound. Different concentrations of calmodulin (5, 10, 20, 50 and 100 nM in the order of FIG. 2) were injected and allowed to associate with the peptides. Regeneration of the surface was achieved by injection of 5 μl TBS+[…] which dissociates the calmodulin-peptide complex.

calmodulin = calmodulin (Bos taurus, UniProt P62157); assay: koff by competition experiments, native PAGE of fluorescein-labelled peptide/calmodulin complexes; type: binding, bovine; set-up: Complexes between calmodulin from bovine brain (1 μM, Sigma); purchased Sigma; host or cells: bovine brain (tissue-derived); settings: for koff: competition with 30-fold excess unlabelled peptide, room temperature, gel buffer, read-out: koff (s^-1)^C; for dissociation from calmodulin in competition with excess unlabelled peptide, in words: FIG. 3
Procedure: Complexes between calmodulin from bovine brain (1 μM, Sigma) and fluorescein-labelled sMLCK-derived peptides (as described in Table 1 (SEQ ID NOS:2-18)) were prepared in gel buffer (25% gel mix [4 g sucrose+1 mg bromophenol blue in water to give a 10 ml solution]+75% TBSC [50 mM TRIS pH 7.4, […]+50 μM CaCl2)] and run on a 15% native PAGE gel (5 ml 30% acrylamide-bisacrylamide solution+4.5 ml water+0.5 ml 3M Tris, pH 8.8, +1 μl 1M CaCl2 polymerised with 30 μl 25% ammonium persulphate and 9 μl TEMED) using 14.4 g/l glycine+3 g/l Tris-base+0.1 mM CaCl2 as running buffer. Peptides were labelled either with iodoacetamido fluorescein (Molecular Probes) or with iodoacetamido-LC-biotin (Pierce) essentially as previously described by Neri et al., (1995). In these conditions, the fluorescence of the positively-charged labelled peptides can be detected only if they form a stable complex with calmodulin.
In order to obtain an independent experimental confirmation if the BIAcore results, koff constants for peptides 1-17 towards calmodulin were determined by competition experiments. 30 nM fluorescein-labelled peptide/calmodulin complexes in gel buffer were competed at room temperature for different times with 30-fold excess of unlabelled peptide. The resulting mixtures were run on native PAGE gels and imaged by LUANA as described above. The bands in the image obtained were integrated using the LUANA software (Neri et al., 1996) and the corresponding intersities plotted versus time and fitted with a single exponential, from which koff constants were derived. In order to normalise band intensities against pipetting errors, the samples contained 6 nM free fluorescein which ran with the front. The fluorescein bands were integrated and used to normalise the calmodulin/fluorescent peptide complex band intensity. The results of competitions for peptides 1, 2, 3, 6, 9, and 14 are shown in this FIG. 3. Incubation time in minutes is indicated under the lanes.
The volumes of the bands were plotted versus competition time and fitted to a single exponential, from which koff values were derived.
The fastest competitions (peptides 1-4, 9 and 13, SEQ ID NOS:2-5,10, and 14) were over by the time the calmodulin/fluorescent peptide complex entered the gel (approximately 5-10 minutes from pipetting a molar excess of unlabelled peptide; FIG. 3), from which a condition on the off-rate constant koff >1×10^-3 s^-1 was derived. Even for these fast off-rates, complexes can be detected by native polyacrylamide gel electrophoresis because of the well known gel "cage effect" (Fried and Crothers, 1981; Garner and Revzin, 1981).

## CC[C@H](C)[C@H](NC(=O)[C@H](CCCCN)NC(=O)[C@H](CCCCN)NC(=O)[C@H](Cc1ccccc1)NC(=O)[C@H](CCCNC(=N)N)NC(=O)[C@H](CC(N)=O)NC(=O)[C@H](C)NC(=O)[C@H](C)NC(=O)[C@H](CO)NC(=O)[C@@H](NC(=O)[C@H](C)NC(=O)[C@H](C)NC(=O)[C@H](Cc1ccccc1)NC(=O)[C@H](CC(N)=O)NC(=O)[C@H](CCCCN)NC(=O)[C@H](CCCCN)NC(=O)[C@H](Cc1c[nH]c2ccccc12)NC(=O)[C@H](CCCNC(=N)N)NC(=O)[C@H](C)NC(=O)[C@H](C)NC(=O)[C@H](C)NC(=O)[C@@H](N)CS)C(C)C)C(=O)N[C@@H](CO)C(N)=O [Peptide 8] (H-CAAARWKKNFAAVSAANRFKKIS-NH2; N-terminus assumed)
Bovine brain calmodulin [1]
  kisom. (s^-1)^A: 1.1 (10.3) × 10^-1 s^-1
Bovine brain calmodulin [2]; BIAcore
  koff: 0.00023 s⁻¹
  kon: 920000 M⁻¹ s⁻¹
calmodulin
  koff: 0.00047 s⁻¹

## CC[C@H](C)[C@H](NC(=O)[C@H](Cc1ccccc1)NC(=O)[C@H](CC(N)=O)NC(=O)[C@H](CCCCN)NC(=O)[C@H](CCCCN)NC(=O)[C@H](Cc1c[nH]c2ccccc12)NC(=O)[C@H](CCCNC(=N)N)NC(=O)[C@H](C)NC(=O)[C@H](C)NC(=O)[C@H](C)NC(=O)[C@@H](N)CS)C(=O)N[C@@H](C)C(=O)N[C@@H](C)C(=O)N[C@@H](CO)C(=O)N[C@@H](C)C(=O)N[C@@H](C)C(=O)N[C@@H](CC(N)=O)C(=O)N[C@@H](CCCNC(=N)N)C(=O)N[C@@H](Cc1ccccc1)C(=O)N[C@@H](CCCCN)C(=O)N[C@@H](CCCCN)C(=O)N[C@H](C(=O)N[C@@H](CO)C(N)=O)[C@@H](C)CC [Peptide 9] (H-CAAARWKKNFIAASAANRFKKIS-NH2; N-terminus assumed)
Bovine brain calmodulin [1]
  kisom. (s^-1)^A: 1.5 (10.3) × 10^-1 s^-1
Bovine brain calmodulin [2]; BIAcore
  koff: 0.0012 s⁻¹
  kon: 860000 M⁻¹ s⁻¹
calmodulin
  dissociation from calmodulin in competition with excess unlabelled peptide, in words: dissociated from calmodulin in a few minutes
  koff: ≥ 0.001 s⁻¹

## CC[C@H](C)[C@H](NC(=O)[C@H](Cc1ccccc1)NC(=O)[C@H](CC(N)=O)NC(=O)[C@H](CCCCN)NC(=O)[C@H](CCCCN)NC(=O)[C@H](Cc1c[nH]c2ccccc12)NC(=O)[C@H](CCCNC(=N)N)NC(=O)[C@H](C)NC(=O)[C@H](C)NC(=O)[C@H](C)NC(=O)[C@@H](N)CS)C(=O)N[C@@H](C)C(=O)N[C@H](C(=O)N[C@@H](C)C(=O)N[C@@H](C)C(=O)N[C@@H](C)C(=O)N[C@@H](CC(N)=O)C(=O)N[C@@H](CCCNC(=N)N)C(=O)N[C@@H](Cc1ccccc1)C(=O)N[C@@H](CCCCN)C(=O)N[C@@H](CCCCN)C(=O)N[C@H](C(=O)N[C@@H](CO)C(N)=O)[C@@H](C)CC)C(C)C [Peptide 10] (H-CAAARWKKNFIAVAAANRFKKIS-NH2; N-terminus assumed)
Bovine brain calmodulin [1]
  kisom. (s^-1)^A: 2.1 (11.0) × 10^-1 s^-1
Bovine brain calmodulin [2]
  improvement of koff with respect to wild type, in words: largest improvements
  improvement in Kd / affinity for calmodulin over the wild type peptide, in words: greatest improvement in affinity; also recorded: greatest improvement in Kd
Bovine brain calmodulin [2]; BIAcore
  koff: 0.0001 s⁻¹
  kon: 1.1e+06 M⁻¹ s⁻¹
calmodulin
  koff: 7.9e-05 s⁻¹

## CC[C@H](C)[C@H](NC(=O)[C@H](Cc1ccccc1)NC(=O)[C@H](CC(N)=O)NC(=O)[C@H](CCCCN)NC(=O)[C@H](CCCCN)NC(=O)[C@H](Cc1c[nH]c2ccccc12)NC(=O)[C@H](CCCNC(=N)N)NC(=O)[C@H](C)NC(=O)[C@H](C)NC(=O)[C@H](C)NC(=O)[C@@H](N)CS)C(=O)N[C@@H](C)C(=O)N[C@H](C(=O)N[C@@H](CO)C(=O)N[C@@H](C)C(=O)N[C@@H](C)C(=O)N[C@@H](C)C(=O)N[C@@H](CCCNC(=N)N)C(=O)N[C@@H](Cc1ccccc1)C(=O)N[C@@H](CCCCN)C(=O)N[C@@H](CCCCN)C(=O)N[C@H](C(=O)N[C@@H](CO)C(N)=O)[C@@H](C)CC)C(C)C [Peptide 11] (H-CAAARWKKNFIAVSAAARFKKIS-NH2; N-terminus assumed)
Bovine brain calmodulin [1]
  kisom. (s^-1)^A: 2.8 (10.6) × 10^-2 s^-1
Bovine brain calmodulin [2]; BIAcore
  koff: 0.00035 s⁻¹
  kon: 940000 M⁻¹ s⁻¹
calmodulin
  koff: 0.00049 s⁻¹

## CC[C@H](C)[C@H](NC(=O)[C@H](Cc1ccccc1)NC(=O)[C@H](CC(N)=O)NC(=O)[C@H](CCCCN)NC(=O)[C@H](CCCCN)NC(=O)[C@H](Cc1c[nH]c2ccccc12)NC(=O)[C@H](CCCNC(=N)N)NC(=O)[C@H](C)NC(=O)[C@H](C)NC(=O)[C@H](C)NC(=O)[C@@H](N)CS)C(=O)N[C@@H](C)C(=O)N[C@H](C(=O)N[C@@H](CO)C(=O)N[C@@H](C)C(=O)N[C@@H](C)C(=O)N[C@@H](CC(N)=O)C(=O)N[C@@H](C)C(=O)N[C@@H](Cc1ccccc1)C(=O)N[C@@H](CCCCN)C(=O)N[C@@H](CCCCN)C(=O)N[C@H](C(=O)N[C@@H](CO)C(N)=O)[C@@H](C)CC)C(C)C [Peptide 12] (H-CAAARWKKNFIAVSAANAFKKIS-NH2; N-terminus assumed)
Bovine brain calmodulin [1]
  kisom. (s^-1)^A: 1.7 (10.4) × 10^-1 s^-1
Bovine brain calmodulin [2]; BIAcore
  koff: 0.00041 s⁻¹
  kon: 1.6e+06 M⁻¹ s⁻¹
calmodulin
  koff: 0.00083 s⁻¹

## CC[C@H](C)[C@H](NC(=O)[C@H](Cc1ccccc1)NC(=O)[C@H](CC(N)=O)NC(=O)[C@H](CCCCN)NC(=O)[C@H](CCCCN)NC(=O)[C@H](Cc1c[nH]c2ccccc12)NC(=O)[C@H](CCCNC(=N)N)NC(=O)[C@H](C)NC(=O)[C@H](C)NC(=O)[C@H](C)NC(=O)[C@@H](N)CS)C(=O)N[C@@H](C)C(=O)N[C@H](C(=O)N[C@@H](CO)C(=O)N[C@@H](C)C(=O)N[C@@H](C)C(=O)N[C@@H](CC(N)=O)C(=O)N[C@@H](CCCNC(=N)N)C(=O)N[C@@H](C)C(=O)N[C@@H](CCCCN)C(=O)N[C@@H](CCCCN)C(=O)N[C@H](C(=O)N[C@@H](CO)C(N)=O)[C@@H](C)CC)C(C)C [Peptide 13] (H-CAAARWKKNFIAVSAANRAKKIS-NH2; N-terminus assumed)
Bovine brain calmodulin [1]
  kisom. (s^-1)^A: 1.8 (10.8) × 10^-1 s^-1
Bovine brain calmodulin [2]; BIAcore
  koff: 0.00084 s⁻¹
  kon: 930000 M⁻¹ s⁻¹
calmodulin
  koff: ≥ 0.001 s⁻¹

## CC[C@H](C)[C@H](NC(=O)[C@H](Cc1ccccc1)NC(=O)[C@H](CC(N)=O)NC(=O)[C@H](CCCCN)NC(=O)[C@H](CCCCN)NC(=O)[C@H](Cc1c[nH]c2ccccc12)NC(=O)[C@H](CCCNC(=N)N)NC(=O)[C@H](C)NC(=O)[C@H](C)NC(=O)[C@H](C)NC(=O)[C@@H](N)CS)C(=O)N[C@@H](C)C(=O)N[C@H](C(=O)N[C@@H](CO)C(=O)N[C@@H](C)C(=O)N[C@@H](C)C(=O)N[C@@H](CC(N)=O)C(=O)N[C@@H](CCCNC(=N)N)C(=O)N[C@@H](Cc1ccccc1)C(=O)N[C@@H](C)C(=O)N[C@@H](CCCCN)C(=O)N[C@H](C(=O)N[C@@H](CO)C(N)=O)[C@@H](C)CC)C(C)C [Peptide 14] (H-CAAARWKKNFIAVSAANRFAKIS-NH2; N-terminus assumed)
Bovine brain calmodulin [1]
  kisom. (s^-1)^A: 1.6 (10.2) × 10^-2 s^-1
Bovine brain calmodulin [2]; BIAcore
  increase in kon with respect to the wild-type peptide 1: 4-5 fold
  koff: 0.00014 s⁻¹
  kon: 2.5e+06 M⁻¹ s⁻¹
Bovine brain calmodulin [2]
  improvement in Kd / affinity for calmodulin over the wild type peptide, in words: greatest improvement in affinity
calmodulin
  dissociation from calmodulin in competition with excess unlabelled peptide, in words: intermediate off-rate
  koff: 0.00015 s⁻¹
